Assays:
Type in all cases: cell-based, Human
HBD-3 = assay: AMP gene expression in keratinocytes (real time qPCR), HBD-3; conditions: NHEK cells, 12HSA at 1 μM (=0.00003 wt %), 24 h
Description: (§1) The following protocol was used for evaluating actives (12-HSA) on keratinocytes for AMP gene expression Normal Human Epidermal Keratinocyte cells (NHEK), EpiLife Keratinocyte Growth Medium (KGM) (with antibiotics Pen-Strep), Dulbecco's Phosphate Buffered Salone (DPBS), Trypsin-EDTA, Trypsin Neutralizer Solution, Ethanol, RNA extraction kit (RNeasy kit), RLT buffer, RT-PCR kit. • 1. Thaw the NHEK cells and expand them in KGM in 2-25 cc and then 75 cc flasks to 80% confluency, changing media every alternate day and incubating at 37° C. in a 5% CO2 incubator. • 2. Discard spent media and rinse the adhered cells in the flask with DPBS. Add Trypsin-EDTA and tap to dislodge the adhered cells. Add Trypsin Neutralizer and gently mix it. • 3. Transfer the contents to a 15-ml tube and spin down the cells. Discard supernatant and resuspend cells in KGM. Count and seed 30,000-50,000 cells per well in 24 well TC plates, incubate to 80-85% confluence (˜2-3 days). Change media every alternate day. Add differentiation media (KGM with 2 mM CaCl2) and incubate for 2-3 days. • 4. Prepare actives in KGM at the required concentration (final concentration of ethanol solvent, if used, should be less than 0.1%). • 5. […] Perform RNA extraction as per the kit, quantify the RNA, do cDNA synthesis and do real time qPCR for cDNA samples. […]

S100A7 = assay: AMP gene expression in keratinocytes (real time qPCR), S100A7; conditions: NHEK cells, 12HSA at 1 μM (=0.00003 wt %), 24 h
Description: as §1

Psoriasin (S100A7) = assay: AMP secretion from keratinocytes (Psoriasin ELISA); conditions: NHEK cells, 72 h, ELISA of supernatant
Description: Psoriasin (S100A7) AMP from the above list was chosen to study the effect of concentration of 12-HSA on the secretion of the AMP. The procedure used was as follows: Normal Human Epidermal Keratinocyte cells (NHEK), EpiLife Keratinocyte Growth Medium (KGM) (with antibiotics Pen-Strep), Dulbecco's Phosphate Buffered Salone (DPBS), Trypsin-EDTA, Trypsin Neutralizer Solution, Ethanol, Psoriasin ELISA Kit. • 1. Thaw the NHEK cells and expand them in KGM in 2 -25 cc and then 75 cc flasks to 80% confluency, changing media every alternate day and incubating at 37° C. in a 5% CO2 incubator. • 2. Discard spent media and rinse the adhered cells in the flask with DPBS. Add Trypsin-EDTA and tap to dislodge the adhered cells. Add Trypsin Neutralizer and gently mix it. • 3. Transfer the contents to a 15-ml tube and spin down the cells. Discard supernatant and resuspend cells in KGM. Count and seed 30,000-50,000 cells per well in 24 well TC plates, incubate to 80-85% confluence (˜2-3 days). Change media every alternate day. Add differentiation media (KGM with 2 mM CaCl2) and incubate for 2-3 days. • 4. Prepare actives in KGM at the required concentration (final concentration of ethanol solvent, if used, should be less than 0.1%). • 5. Replace the differentiation media with the actives containing media and incubate for 72 h • 6. Collect supernatant and store at −80° C. Thaw them completely before performing ELISA to measure AMP (Psoriasin). • 7. For ELISA, run the required standards and samples (undiluted and diluted) and using standard plot, the amount of AMP in samples calculated.

LL-37 = assay: AMP gene expression in keratinocytes (real time qPCR), LL-37; conditions: NHEK cells, 12HSA at 1 μM (=0.00003 wt %), 24 h
Description: as §1

RNase7 = assay: AMP gene expression in keratinocytes (real time qPCR), RNase7; conditions: NHEK cells, 12HSA at 1 μM (=0.00003 wt %), 24 h
Description: as §1

Question: With `CCCCCCC(O)CCCCCCCCCCC(=O)O` (centres unmarked) [12-HSA, 12-hydroxystearic acid] as the molecule, how does the “Fold change with respect to control, AMP gene HBD-3” value (HBD-3) read?
Answer: The value was 2.16 fold.

Question: And the “Fold change with respect to control, AMP gene S100A7” value (S100A7)?
Answer: The value was 1.66 fold.

Question: What about the “Fold change with respect to control (Psoriasin increase)” value (“Fold change … (Psoriasin increase)” below) (Psoriasin (S100A7); 0.25 μM 12-HSA) of the same molecule?
Answer: Its value is 8.12 fold.

Question: And the “Fold change … (Psoriasin increase)” value (Psoriasin (S100A7); 0.50 μM 12-HSA)?
Answer: Its value is 15.07 fold.

Question: What about the “Fold change … (Psoriasin increase)” value (Psoriasin (S100A7); 1.0 μM 12-HSA) of the same molecule?
Answer: The value was 9.79 fold.

Question: And the “Fold change … (Psoriasin increase)” value (Psoriasin (S100A7); 2.0 μM 12-HSA)?
Answer: Its value is 15.70 fold.

Question: And the “Fold change with respect to control, AMP gene LL-37” value (LL-37)?
Answer: The value was 2.09 fold.

Question: What about the “Fold change with respect to control, AMP gene RNase7” value (RNase7) of the same molecule?
Answer: The value was 2.56 fold.
